{"source": "patent US20240131352A1", "about": "“NON-INVASIVE CANCER TREATMENT” (SCIENTIA BIOTECH S.L, priority 2021, published 2024)", "key": {"U87MG cells": {"system": "U87MG cells", "conditions": "240 min + HT 42° C. 10 min; for effect on cell viability for U87MG cells: 20 μM compound minute 210 to 240 + TTF 300 kHz, about 8 μT; for effect on viable U87MG cells of TTF+HT+PT: 20 μM pterostilbene minute 120 to 240 + TTF 300 kHz, 8 μT", "protocol": "The hyperthermia applied was 42° C. for 10 minutes (from minute 120 to minute 130). 20 μM of pterostilbene was applied for 120 minutes (from minute 120 to minute 240). […] The magnetic field was applied using a solenoid with approximately 100 μT magnetic flux density at the central axis of the solenoid. The solenoid was placed at a distance from the cell cultures such that the average field strength on the surface of the culture flasks where the cells were attached was 8 μT.\nFIGS. 15B to 15F show microscopic images of in vitro U87MG cell cultures after exposed to different external treatments.\nThe data are means with standard deviation for four independent experiments. Data labelled * indicates a P value (student's t test) less than 0.01 compared to the control. Data labelled + indicates a P value (student's t test) less than 0.01 compared to the TTF-only data. Data labelled # indicates a P value (student's t test) less than 0.01 compared to the TTF+HT data."}, "[1]": {"system": "AsPC1 (pancreatic adenocarcinoma, ATCC) cells", "conditions": "for effect on viable AsPC1 cells of TTF+HT+GEM+PT: 25 μM gemcitabine + 20 μM pterostilbene minute 0 to 240 + TTF 200 kHz, 1.5 μT + HT 52° C. 20 min, all four in combination", "experimental": "For TTF data the TT-Field applied was at 200 kHz for 240 mins (from minute 0 to minute 240) for a field intensity of 1.5 μT. For HT data the hyperthermia applied was 52° C. for 20 minutes (from minute 120 to minute 140). For PT data 20 uM of pterostilbene was applied from minute 0 to minute 240.\nFor TTF data, the TT-Field applied was at 200 kHz for 240 mins (from minute 0 to minute 240) for a field intensity of 1.5 μT. For HT data the hyperthermia applied was 52° C. for 20 minutes (from minute 120 to minute 140). For GEM data 25 μM of gemcitabine was applied from minute 0 to minute 240. For PT data 20 μM of pterostilbene was applied from minute 0 to minute 240.\n(§2) For rows including “TTF”, a TT-Field was applied at 200 kHz for 240 mins (from minute 0 to minute 240) for a field intensity of 1.5 μT. For rows including “HT”, hyperthermia applied was at 42 ° C. for U87MG and 52° C. for AsPC1 and A2058 for 20 minutes (from minute 120 to minute 140)."}, "[2]": {"system": "A2058 (melanoma, ATCC) cells", "experimental": "For TTF data, the TT-Field applied was at 200 kHz for 240 mins (from minute 0 to minute 240) for a field intensity of 1.5 μT. For HT data the hyperthermia applied was 52° C. for 20 minutes (from minute 120 to minute 140). For PT data 20 μM of pterostilbene was applied from minute 0 to minute 240.\nFor TTF data, the TT-Field applied was at 200 kHz for 240 mins (from minute 0 to minute 240) for a field intensity of 1.5 μT. For HT data the hyperthermia applied was 52° C. for 20 minutes (from minute 120 to minute 140). For PAC data 10 μM of paclitaxel was applied from minute 0 to minute 240.\nas §2"}, "[3]": {"system": "MCF-7 (mammary gland carcinoma)", "assay": "heating + tumour treating fields + PT in vitro, MCF-7", "format": "cell-based", "conditions": "MCF-7, in vitro", "from_the_text": "(§1) The effectiveness of therapy by heating in combination with tumour treating fields and exposure to PT is also observed in other cell lines in vitro, such as A2058 (melanoma), AsPC-1 (pancreas carcinoma), A549 (lung carcinoma), MCF-7 (mammary gland carcinoma), HT-29 (colorectal carcinoma), PC-3 (prostate carcinoma), SK-OV-3 (ovarian carcinoma and HepG2 (hepatocarcinoma)."}, "[4]": {"system": "PC-3 (prostate carcinoma)", "assay": "heating + tumour treating fields + PT in vitro, PC-3", "format": "cell-based", "conditions": "PC-3, in vitro", "from_the_text": "as §1"}, "GL261": {"system": "GL261", "assay": "TTF+HT+PT therapy on glioblastoma line GL261", "format": "cell-based", "conditions": "compared with U87MG"}, "C6": {"system": "C6", "assay": "TTF+HT+PT therapy on glioblastoma line C6", "format": "cell-based", "conditions": "compared with U87MG"}, "A549 (lung carcinoma)": {"system": "A549 (lung carcinoma)", "assay": "heating + tumour treating fields + PT in vitro, A549", "format": "cell-based", "from_the_text": "as §1"}, "HepG2 (hepatocarcinoma)": {"system": "HepG2 (hepatocarcinoma)", "assay": "heating + tumour treating fields + PT in vitro, HepG2", "format": "cell-based", "from_the_text": "as §1"}, "[5]": {"system": "SK-OV-3 (ovarian carcinoma)", "assay": "heating + tumour treating fields + PT in vitro, SK-OV-3", "format": "cell-based", "conditions": "SK-OV-3, in vitro", "from_the_text": "as §1"}, "[6]": {"system": "HT-29 (colorectal carcinoma)", "assay": "heating + tumour treating fields + PT in vitro, HT-29", "format": "cell-based", "conditions": "HT-29, in vitro", "from_the_text": "as §1"}, "[7]": {"system": "GSH in A2058 (melanoma) cells", "assay": "GSH content of A2058 cells in vitro (GSH depletion)", "format": "cell-based", "experimental": "(§3) For rows including “TTF”, a TT-Field was applied at 200 kHz for 240 mins (from minute 0 to minute 240) for a field intensity of 1.5 μT. For rows including “HT”, hyperthermia applied was at 42 ° C. for U87MG and 52° C. for AsPC1 and A2058 for 20 minutes (from minute 120 to minute 140). For rows including “BSO”, 1 mM of buthione sulfoximine, a specific inhibitor of GSH synthesis, was added to the cell culture medium at the time the cells of the culture were seeded. When HT and TTF were applied in combination with BSO, the HT and TTF were applied 24 hours after seeding."}, "[8]": {"system": "GSH in AsPC1 (Pancreatic adenocarcinoma) cells", "assay": "GSH content of AsPC1 cells in vitro (GSH depletion)", "format": "cell-based", "experimental": "as §3"}, "GSH in U87 (GBM) cells": {"system": "GSH in U87 (GBM) cells", "assay": "GSH content of U87MG cells in vitro (GSH depletion)", "format": "cell-based", "experimental": "as §3"}, "[9]": {"conditions": "1 mM BSO + TTF (200 kHz, 1.5 μT, 240 min) + HT (52° C., 20 min) applied 24 hours after seeding"}, "[10]": {"conditions": "1 mM BSO added at seeding, BSO alone, mean ± SD, five experiments"}}, "note": "Read-outs that look alike come from different tables or passages of the source. Marks after values point to notes of the source that are not given here.", "data": [{"compound": "OC[C@H]1O[C@@H](Oc2cc(O)cc(/C=C/c3ccc(O)cc3)c2)[C@H](O)[C@@H](O)[C@@H]1O", "note": "[G-diOH-s, 3-glucoside-5,4′-dihydroxystilbene]", "values": [{"measurement": "effect on cell viability for U87MG cells", "setting": "U87MG cells", "result": "significant reduction in cell viability"}]}, {"compound": "Nc1ccn([C@@H]2O[C@H](CO)[C@@H](O)C2(F)F)c(=O)n1", "note": "[GEM, gemcitabine]", "values": [{"measurement": "effect on viable AsPC1 cells of TTF+HT+GEM+PT", "setting": "[1]", "result": "eliminated the AsPC1 cells"}]}, {"compound": "CC(=O)O[C@H]1C(=O)[C@@]2(C)[C@H]([C@H](OC(=O)c3ccccc3)[C@]3(O)C[C@H](OC(=O)[C@H](O)[C@@H](NC(=O)c4ccccc4)c4ccccc4)C(C)=C1C3(C)C)[C@]1(OC(C)=O)CO[C@@H]1C[C@@H]2O", "note": "[PAC, (2α,4α,5β,7β,10β,13α)-4,10-Bis(acetyloxy)-13-{[(2R,3 S)-3(benzoylamino)-2-hydroxy-3-phenylpropanoyl]oxy}-1,7-dihydroxy-9-oxo-5,20-epoxytax-11-en-2-yl benzoate]", "values": [{"measurement": "effect on viable A2058 cells of TTF+HT+PAC", "setting": "[2]; 10 μM paclitaxel minute 0 to 240 + TTF 200 kHz, 1.5 μT + HT 52° C. 20 min", "result": "eliminated the cells"}]}, {"compound": "COc1cc(/C=C/c2ccc(O)cc2)cc(OC)c1", "note": "[pterostilbene, trans-3,5-dimethoxy-4′-hydroxystilbene]", "values": [{"measurement": "effect on viability of A2058 cells of TTF+HT+PT", "setting": "[2]; 20 μM pterostilbene minute 0 to 240 + TTF 200 kHz, 1.5 μT + HT 52° C. 20 min, compared to TTF+HT", "result": "significantly reduced the viability of the cells"}, {"measurement": "effectiveness of therapy by heating in combination with tumour treating fields and exposure to PT", "setting": "[2]; A2058 (melanoma), in vitro", "result": "also observed"}, {"measurement": "effectiveness of therapy by heating in combination with tumour treating fields and exposure to PT", "setting": "[3]", "result": "also observed"}, {"measurement": "effect on viable U87MG cells of TTF+HT+PT", "setting": "U87MG cells", "result": "effectively eliminates all cells in vitro"}, {"measurement": "effect on viable U87MG cells of TTF+HT+PT", "setting": "U87MG cells; listed as PT", "result": "completely eliminates all U87MG growing cells"}, {"measurement": "effectiveness of therapy by heating in combination with tumour treating fields and exposure to PT", "setting": "[4]", "result": "also observed"}, {"measurement": "effectiveness of TTF+HT+PT therapy", "setting": "GL261", "result": "same effectiveness"}, {"measurement": "effectiveness of TTF+HT+PT therapy", "setting": "C6", "result": "same effectiveness"}, {"measurement": "effectiveness of therapy by heating in combination with tumour treating fields and exposure to PT", "setting": "A549 (lung carcinoma)", "result": "also observed"}, {"measurement": "effect on viable AsPC1 cells of TTF+HT+GEM+PT", "setting": "[1]", "result": "eliminated the AsPC1 cells"}, {"measurement": "effectiveness of therapy by heating in combination with tumour treating fields and exposure to PT", "setting": "[1]; AsPC-1 (pancreas carcinoma), in vitro", "result": "also observed"}, {"measurement": "effectiveness of therapy by heating in combination with tumour treating fields and exposure to PT", "setting": "HepG2 (hepatocarcinoma)", "result": "also observed"}, {"measurement": "effectiveness of therapy by heating in combination with tumour treating fields and exposure to PT", "setting": "[5]", "result": "also observed"}, {"measurement": "effectiveness of therapy by heating in combination with tumour treating fields and exposure to PT", "setting": "[6]", "result": "also observed"}]}, {"compound": "Oc1ccc(C=Cc2cc(O)cc(O)c2)cc1", "note": "[resveratrol]", "values": [{"measurement": "effect on cell viability for U87MG cells", "setting": "U87MG cells", "result": "do not eliminate all U87MG cell growing in vitro"}]}, {"compound": "Buthionine sulfoximine [BSO]", "values": [{"measurement": "GSH", "setting": "[7]; [9]", "result": "2.06 ± 0.51*^+ nmol/10^6 cells"}, {"measurement": "GSH", "setting": "[7]; [10]", "result": "2.24 ± 0.82", "unit": "nmol/10^6 cells"}, {"measurement": "GSH", "setting": "[8]; [9]", "result": "2.49 ± 0.66*^+ nmol/10^6 cells"}, {"measurement": "GSH", "setting": "[8]; [10]", "result": "3.14 ± 0.79", "unit": "nmol/10^6 cells"}, {"measurement": "GSH", "setting": "GSH in U87 (GBM) cells; 1 mM BSO + TTF (200 kHz, 1.5 μT, 240 min) + HT (42 °C, 20 min) applied 24 hours after seeding", "result": "1.92 ± 0.59*^+ nmol/10^6 cells"}, {"measurement": "GSH", "setting": "GSH in U87 (GBM) cells; [10]", "result": "2.10 ± 0.70", "unit": "nmol/10^6 cells"}]}]}
